Results published in patent publication US20250304623A1, “PEPTIDES FOR INTRACELLULAR DELIVERY” (UNIVERSIDADE DE SANTIAGO DE COMPOSTELA, priority 2022, published 2025).
*: point of attachment. NHNH2 = NN*

Columns and labels:
Format in all cases: cell-based
ARPE19 cells = assay: RLuc pDNA delivery, robotic library screening, ARPE19
HepG2 cells [1] = assay: RLuc pDNA delivery, robotic library screening, HepG2
Protocol: (§1) Cells were seeded in a 96 well plate the day before the experiment at a concentration of 60,000 cell/mL (100 μL/w) in DMEM+10% FBS+1% Gln-Abt. For robotic library screening, the delivery of pDNA encoding for the expression of Renilla luciferase gene (RLuc, pRL-CMV (Promega, #E2261)) in six different cell lines was performed. Amphihilic molecule stock solutions in DMSO were diluted with DMEM and freshly mixed with pDNA stock solutions in DMEM prior to transfection experiments, to afford several complexes at different amphiphile concentration (2-10 μM) while maintaining a constant final pDNA concentration of 2 ng/μL. The mixture was shaken for 30 min at room temperature before the addition to the cells. The cell medium was aspirated, and cells were washed twice with PBS. Finally, 50 μL of the complex's solution were added to the cells and incubated for 4 h. After the incubation, the medium was replaced by 100 μL of fresh DMEM supplemented with 10% FBS. 72 hours after transfection the DMEM was removed, cells were washed once with HBSS and 90 μL of HBSS were added to each well. Cells were incubated at 37° C. for 30 minutes. Then basal luminescence levels were read in a plate reader. Immediately, 10 μL of coelenterazine h in HBSS were added to each well (5 μM final concentration) and cells were incubated at 37° C. for 10 minutes. Finally, the total luminescence measurement of the plates was performed. Amphiphile transfection efficiency was compared and normalized to Lipofectamine® 2000 efficiency (value of 1 in Tables 1-5 and 7; bold numbers). All experiments were done in triplicate.
(§2) Tables 1-7: RLuc (pDNA) or EGFP (mRNA) expression levels were normalized to Lipofectamine reagents (value=1) and expressed as fold-times signal increase. In the case of siRNA, the siRNA treated cells fluorescence was compared with siMOCK control fluorescence, while Cas9-RNP mediated knockout was measured against the fluorescence of untreated cells. In both siRNA and Cas9-RNP, values are expressed as % fluorescence reduction. Amphiphile concentration was 5 μM in all cases. All experiments were performed in triplicate.
(§3) Tables 8-13 show the mean (triplicates) luminescent intensity (RLU) measured after the transfection of RLuc pDNA by different amphiphiles at different concentrations in a variety of cell lines. Background luminescence values, accounted by untransfected control cells, were subtracted for processing.

HepG2 cells [2] = assay: EGFP mRNA delivery, robotic library screening, HepG2; details: HepG2 cells
Protocol: Cells were seeded in a 96 well plate the day before the experiment at a concentration of 50,000 cell/mL (100 μL/w) in DMEM+10% FBS+1% Gln-Abt. For robotic library screening, the delivery of EGFP-mRNA (from TriLink, fully substituted with 5-methoxyuridine, capped and polyadenylated; TriLink, CleanCap® EGFP mRNA (5moU), ref. L-7201) in six different cell lines was performed. Amphiphilic molecule stock solutions were prepared in DMSO as described above and diluted in DMEM to afford a range of concentrations. The solutions of EGFP-mRNA/amphiphilic molecule complexes were freshly prepared prior to the transfection experiments. 35 μL of the corresponding amphiphile were added to 10 μL of a solution of EGFP-mRNA at 10 ng/μL in DMEM. The mixture was shaken for 30 min at room temperature before the addition to the cells. The cell medium was aspirated, and cells were washed with PBS twice. […] After the incubation, the medium was replaced by 100 μL of fresh DMEM supplemented with 10% FBS. The total EGFP fluorescence was quantified after 72 h in a well plate reader. Amphiphile transfection efficiency was compared and normalized to Lipofectamine® MessengerMax efficiency (value of 1 in Tables 1-5 and 7; double underlined numbers). All experiments were done in triplicate.
as §2
Tables 14-19 show the mean (triplicates) fluorescence intensity measured after the transfection of EGFP mRNA by different amphiphiles at different concentrations in a variety of cell lines. Background fluorescence values, accounted by untreated control cells, were subtracted for processing.

Hek293 cells = assay: RLuc pDNA delivery, robotic library screening, Hek293
A549 cells = assay: RLuc pDNA delivery, robotic library screening, A549
Protocol: as §1, §2, §3

HCT116 cells = assay: RLuc pDNA delivery, robotic library screening, HCT116
Hela cells = assay: RLuc pDNA delivery, robotic library screening, HeLa; details: Hela
Protocol: as §1, with “Amphihilic molecule stock solutions in DMSO were diluted with DMEM and freshly mixed with pDNA stock solutions in DMEM prior to transfection experiments, to afford several complexes at different amphiphile concentration (2-10 μM) while maintaining a constant final pDNA concentration of 2 ng/μL.” left out
as §2, §3

Substance	mean luminescent intensity (RLuc pDNA) (ARPE19 cells; Dodecanal, 5 μM) [RLU]	mean luminescent intensity (RLuc pDNA) (ARPE19 cells; Myristoleyl, 5 μM) [RLU]	mean luminescent intensity (RLuc pDNA) (ARPE19 cells; Myristoleyl, 10 μM) [RLU]	mean luminescent intensity (RLuc pDNA) (ARPE19 cells; Myristoleyl, 15 μM) [RLU]	mean luminescent intensity (RLuc pDNA) (ARPE19 cells; Petroselinyl, 5 μM) [RLU]	mean luminescent intensity (RLuc pDNA) (HepG2 cells [1]; Oleyl, 5 μM) [RLU]	mean luminescent intensity (RLuc pDNA) (Hek293 cells; Dodecanal, 5 μM) [RLU]	mean luminescent intensity (RLuc pDNA) (Hek293 cells; Palmitoleyl, 10 μM) [RLU]	mean luminescent intensity (RLuc pDNA) (Hek293 cells; Petroselinyl, 5 μM) [RLU]	mean luminescent intensity (RLuc pDNA) (Hek293 cells; Petroselinyl, 10 μM) [RLU]	mean luminescent intensity (RLuc pDNA) (A549 cells; Oleyl, 5 μM) [RLU]	mean luminescent intensity (RLuc pDNA) (HCT116 cells; Dodecanal, 5 μM) [RLU]	mean luminescent intensity (RLuc pDNA) (HCT116 cells; Dodecanal, 10 μM) [RLU]	mean luminescent intensity (RLuc pDNA) (HCT116 cells; Dodecanal, 15 μM) [RLU]	mean luminescent intensity (RLuc pDNA) (HCT116 cells; Myristoleyl, 5 μM) [RLU]	mean luminescent intensity (RLuc pDNA) (HCT116 cells; Myristoleyl, 15 μM) [RLU]	mean luminescent intensity (RLuc pDNA) (HCT116 cells; Palmitoleyl, 5 μM) [RLU]	mean luminescent intensity (RLuc pDNA) (HCT116 cells; Petroselinyl, 5 μM) [RLU]	mean luminescent intensity (RLuc pDNA) (Hela cells; Myristoleyl, 5 μM) [RLU]	mean luminescent intensity (RLuc pDNA) (Hela cells; Myristoleyl, 10 μM) [RLU]	other results
Ac-RRK*K*RK*LRRLLRL-NH2 [13(3b)]	4597	2571	86	64	5548	128030	233706	33115	100988	48097	9759	101412	17841	3435	34451	504	65487	11255	893	446	mean luminescent intensity (RLuc pDNA) (HepG2 cells [1]; Oleyl, 10 μM): 4005 RLU; mean luminescent intensity (RLuc pDNA) (HepG2 cells [1]; Oleyl, 15 μM): −1204 RLU; mean fluorescence intensity after transfection of EGFP mRNA (HepG2 cells [2]; Palmitoleyl, 5 μM): 1176; mean fluorescence intensity after transfection of EGFP mRNA (HepG2 cells [2]; Palmitoleyl, 10 μM): −335; mean fluorescence intensity after transfection of EGFP mRNA (HepG2 cells [2]; Palmitoleyl, 15 μM): −37; mean fluorescence intensity after transfection of EGFP mRNA (HepG2 cells [2]; Petroselinyl, 10 μM): 189; mean luminescent intensity (RLuc pDNA) (Hek293 cells; Palmitoleyl, 5 μM): 97665 RLU; mean luminescent intensity (RLuc pDNA) (A549 cells; Dodecanal, 15 μM): 2061 RLU; mean luminescent intensity (RLuc pDNA) (A549 cells; Oleyl, 10 μM): 1493 RLU; mean luminescent intensity (RLuc pDNA) (A549 cells; Oleyl, 15 μM): 1440 RLU; mean luminescent intensity (RLuc pDNA) (HCT116 cells; Oleyl, 5 μM): 18257 RLU; mean luminescent intensity (RLuc pDNA) (Hela cells; Myristoleyl, 15 μM): 338 RLU; mean luminescent intensity (RLuc pDNA) (Hela cells; Petroselinyl, 5 μM): 590 RLU
Ac-RRLK*RK*LRRLK*RL-NH2 (Ac-RRLK(NHNH2)RK(NHNH2)LRRLK(NHNH2)RL-NH2; not fully specified; printed as Ac-RRLK*RK*LRRLK*RL-NH2; also: K*4,K*6,K*11: native or modified lysine (ε-amide to a linker)) [13(2 + 1)]	10116	2549	−28	−36	4118	116466	269506	59470	78739	31561	3288	132238	6721	2207	70015	1114	105588	70216	564	379	mean luminescent intensity (RLuc pDNA) (ARPE19 cells; Palmitoleyl, 5 μM): 5094 RLU; mean luminescent intensity (RLuc pDNA) (HepG2 cells [1]; Dodecanal, 5 μM): 322366 RLU; mean luminescent intensity (RLuc pDNA) (HepG2 cells [1]; Dodecanal, 10 μM): 17040 RLU; mean luminescent intensity (RLuc pDNA) (HepG2 cells [1]; Dodecanal, 15 μM): 2698 RLU; mean luminescent intensity (RLuc pDNA) (HepG2 cells [1]; Myristoleyl, 5 μM): 418253 RLU; mean luminescent intensity (RLuc pDNA) (HepG2 cells [1]; Myristoleyl, 10 μM): 85339 RLU; mean luminescent intensity (RLuc pDNA) (HepG2 cells [1]; Myristoleyl, 15 μM): 23239 RLU; mean luminescent intensity (RLuc pDNA) (HepG2 cells [1]; Palmitoleyl, 5 μM): 353987 RLU; mean luminescent intensity (RLuc pDNA) (HepG2 cells [1]; Palmitoleyl, 10 μM): 97075 RLU; mean luminescent intensity (RLuc pDNA) (HepG2 cells [1]; Petroselinyl, 5 μM): 168828 RLU; mean luminescent intensity (RLuc pDNA) (A549 cells; Dodecanal, 5 μM): 24508 RLU; mean luminescent intensity (RLuc pDNA) (A549 cells; Dodecanal, 10 μM): 1332 RLU; mean luminescent intensity (RLuc pDNA) (A549 cells; Myristoleyl, 5 μM): 11594 RLU; mean luminescent intensity (RLuc pDNA) (A549 cells; Myristoleyl, 10 μM): 2240 RLU; mean luminescent intensity (RLuc pDNA) (A549 cells; Palmitoleyl, 5 μM): 22640 RLU; mean luminescent intensity (RLuc pDNA) (A549 cells; Palmitoleyl, 10 μM): 4550 RLU; mean luminescent intensity (RLuc pDNA) (A549 cells; Petroselinyl, 5 μM): 19295 RLU; mean luminescent intensity (RLuc pDNA) (A549 cells; Petroselinyl, 15 μM): 2435 RLU; mean luminescent intensity (RLuc pDNA) (Hela cells; Myristoleyl, 15 μM): 452 RLU; mean luminescent intensity (RLuc pDNA) (Hela cells; Palmitoleyl, 5 μM): 1206 RLU
